Measurements as given in ChEMBL document CHEMBL1201862, “PubChem BioAssay data set” (2004).
The source made the active and inactive calls.

Assays:
[1] = target: T1, Calpain-2 catalytic subunit (Sus scrofa, UniProt P43367); test: m-calpain protease blockers, concentration series – biochemical, fluorogenic peptide substrate, dose response (AID 1420); format: functional
T1 sequence (P43367 whole entry): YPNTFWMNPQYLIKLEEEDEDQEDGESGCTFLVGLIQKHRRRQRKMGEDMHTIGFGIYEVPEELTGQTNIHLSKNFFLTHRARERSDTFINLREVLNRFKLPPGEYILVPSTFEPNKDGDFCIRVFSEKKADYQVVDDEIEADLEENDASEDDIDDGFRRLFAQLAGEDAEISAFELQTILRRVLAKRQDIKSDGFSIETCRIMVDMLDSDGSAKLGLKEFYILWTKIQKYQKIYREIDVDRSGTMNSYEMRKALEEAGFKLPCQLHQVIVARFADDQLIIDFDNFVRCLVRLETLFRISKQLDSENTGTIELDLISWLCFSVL

[2] = viability of uninfected HEp-2 cells – cell-based, HTS, cytotoxicity control for RSV inhibitor project, dose response (AID 2410); format: functional; conditions: human respiratory syncytial virus
[3] = NIH-3T3 fibroblast cytotoxicity, dose response, cytotoxicity control, cell-based, fluorescence, Alamar Blue, secondary assay (AID 2327); format: functional;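 further: NIH-3T3 mouse fibroblasts cultured with fluconazole at 8 µg/mL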
[4] = fluconazole-exposed Candida albicans growth modulators – fluorescence, retest, confirmation (AID 2467); format: functional, cell-based
[5] = target: T2, Cytochrome P450 1A2 (Homo sapiens, UniProt P05177);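 further: PubChem cytochrome P450 panel assay, CYP1A2 panel member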
T2 sequence (P05177 whole entry): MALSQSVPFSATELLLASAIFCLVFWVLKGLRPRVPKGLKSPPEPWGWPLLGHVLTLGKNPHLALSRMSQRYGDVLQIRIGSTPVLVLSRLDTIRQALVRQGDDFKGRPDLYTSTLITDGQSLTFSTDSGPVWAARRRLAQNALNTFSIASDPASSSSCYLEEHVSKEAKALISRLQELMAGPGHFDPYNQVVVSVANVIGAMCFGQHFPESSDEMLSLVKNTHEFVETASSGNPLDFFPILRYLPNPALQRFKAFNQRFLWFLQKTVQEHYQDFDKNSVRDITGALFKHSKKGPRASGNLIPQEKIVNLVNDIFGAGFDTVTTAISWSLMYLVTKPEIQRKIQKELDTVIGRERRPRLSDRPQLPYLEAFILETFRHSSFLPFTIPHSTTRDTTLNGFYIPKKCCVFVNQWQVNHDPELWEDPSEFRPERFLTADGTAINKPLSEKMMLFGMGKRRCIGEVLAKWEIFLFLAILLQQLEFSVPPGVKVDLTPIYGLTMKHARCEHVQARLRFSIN

[6] = target: Cytochrome P450 3A4 (Homo sapiens, UniProt P08684);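 further: CYP3A4 tested as one member of a cytochrome P450 panel screen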
Sequence of Cytochrome P450 3A4 (P08684 whole entry): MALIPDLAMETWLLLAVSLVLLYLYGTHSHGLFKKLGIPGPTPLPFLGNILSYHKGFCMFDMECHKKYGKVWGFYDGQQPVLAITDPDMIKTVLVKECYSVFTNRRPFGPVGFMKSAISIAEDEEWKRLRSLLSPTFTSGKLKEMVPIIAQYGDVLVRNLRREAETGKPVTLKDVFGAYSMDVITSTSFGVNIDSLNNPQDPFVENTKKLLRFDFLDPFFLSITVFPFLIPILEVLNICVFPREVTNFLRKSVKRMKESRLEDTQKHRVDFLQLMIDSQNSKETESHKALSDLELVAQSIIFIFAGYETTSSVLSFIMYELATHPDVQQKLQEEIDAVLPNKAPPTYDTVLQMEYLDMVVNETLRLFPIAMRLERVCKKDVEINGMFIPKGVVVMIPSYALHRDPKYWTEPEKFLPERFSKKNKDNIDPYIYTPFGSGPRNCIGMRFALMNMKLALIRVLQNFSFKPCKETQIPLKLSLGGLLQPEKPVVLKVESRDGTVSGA

[7] = target: Cytochrome P450 2C19 (Homo sapiens, UniProt P33261); test: Cytochrome panel assay with activity outcomes. Panel member name: p450-cyp2c19 Compounds with AC50 equal or less than 10 uM are considered active; format: functional
Sequence of Cytochrome P450 2C19 (P33261 whole entry): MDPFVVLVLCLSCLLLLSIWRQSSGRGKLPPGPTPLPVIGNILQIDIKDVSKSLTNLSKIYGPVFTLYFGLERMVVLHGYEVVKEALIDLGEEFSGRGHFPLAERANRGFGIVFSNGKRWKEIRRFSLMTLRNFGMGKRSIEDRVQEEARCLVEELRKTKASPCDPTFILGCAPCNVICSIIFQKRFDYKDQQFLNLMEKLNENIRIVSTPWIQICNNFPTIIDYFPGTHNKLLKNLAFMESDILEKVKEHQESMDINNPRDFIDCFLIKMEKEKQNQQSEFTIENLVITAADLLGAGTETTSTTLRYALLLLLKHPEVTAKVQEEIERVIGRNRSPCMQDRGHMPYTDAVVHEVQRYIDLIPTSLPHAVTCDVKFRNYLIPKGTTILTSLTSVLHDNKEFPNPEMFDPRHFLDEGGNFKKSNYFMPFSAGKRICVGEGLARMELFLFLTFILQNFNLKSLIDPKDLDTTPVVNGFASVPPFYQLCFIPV

[8] = target: Paired box protein Pax-8 (Homo sapiens, UniProt Q06710); test: PAX8 transcriptional activity inhibition in RMG-I – RMG-I cells, luciferase, cherry-pick, dose response (AID 687027); format: functional, cell-based;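 further: luciferase reporter driven by Pax8 target thyroperoxidase promoter measured by SteadyGlo luminescence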
Sequence of Paired box protein Pax-8 (Q06710 whole entry): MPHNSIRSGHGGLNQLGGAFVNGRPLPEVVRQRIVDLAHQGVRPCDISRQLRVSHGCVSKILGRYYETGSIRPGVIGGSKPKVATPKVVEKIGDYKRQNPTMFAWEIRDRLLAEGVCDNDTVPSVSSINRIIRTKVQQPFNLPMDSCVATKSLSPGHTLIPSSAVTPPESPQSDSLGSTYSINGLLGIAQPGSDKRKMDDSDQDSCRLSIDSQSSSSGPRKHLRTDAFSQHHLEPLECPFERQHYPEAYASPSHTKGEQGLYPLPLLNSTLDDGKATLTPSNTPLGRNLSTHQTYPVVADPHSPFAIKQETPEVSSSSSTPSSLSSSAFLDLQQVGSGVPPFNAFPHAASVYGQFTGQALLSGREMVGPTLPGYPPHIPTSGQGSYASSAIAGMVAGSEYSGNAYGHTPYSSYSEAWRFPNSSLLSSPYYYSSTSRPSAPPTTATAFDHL

[9] = Trypanosoma cruzi growth suppression in host cells – NIH3T3 host cells, beta-gal luminescence, confirmation (AID 2044); format: functional, cell-based;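 further: intracellular parasites grown in NIH/3T3 mouse fibroblasts as host cells; luminescent beta-galactosidase reporter signal from transgenic T. cruzi replicating inside host cells; inhibitors lower the luminescence signal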
[10] = NIH3T3 cell viability loss – ATP luminescence, mouse fibroblasts, counter-screen, dose response (AID 2010); format: functional, cell-based;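 further: cells exposed to compound for about 90 hours before reading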
[11] = test system: BJ; test: cells; format: functional, cell-based; conditions: Homo sapiens
[12] = test system: BJ; test: BJ-TERT-LT-ST fibroblast viability loss – cell-based, RAS-independent, luminescence, dose response (AID 1935); format: functional; conditions: Homo sapiens;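 further: BJ fibroblasts immortalized with TERT plus LT and ST oncogenes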
[13] = test system: BJ; test: BJ-TERT fibroblast viability loss – cell-based, RAS-independent, luminescence, dose response (AID 1933); format: functional; conditions: Homo sapiens
[14] = DRD fibroblast viability loss – cell-based, non-viral oncogenic, luminescence, dose response (AID 1934); format: functional; conditions: Homo sapiens
[15] = target: Cytochrome P450 2C9 (Homo sapiens, UniProt P11712)
Sequence of Cytochrome P450 2C9 (P11712 whole entry): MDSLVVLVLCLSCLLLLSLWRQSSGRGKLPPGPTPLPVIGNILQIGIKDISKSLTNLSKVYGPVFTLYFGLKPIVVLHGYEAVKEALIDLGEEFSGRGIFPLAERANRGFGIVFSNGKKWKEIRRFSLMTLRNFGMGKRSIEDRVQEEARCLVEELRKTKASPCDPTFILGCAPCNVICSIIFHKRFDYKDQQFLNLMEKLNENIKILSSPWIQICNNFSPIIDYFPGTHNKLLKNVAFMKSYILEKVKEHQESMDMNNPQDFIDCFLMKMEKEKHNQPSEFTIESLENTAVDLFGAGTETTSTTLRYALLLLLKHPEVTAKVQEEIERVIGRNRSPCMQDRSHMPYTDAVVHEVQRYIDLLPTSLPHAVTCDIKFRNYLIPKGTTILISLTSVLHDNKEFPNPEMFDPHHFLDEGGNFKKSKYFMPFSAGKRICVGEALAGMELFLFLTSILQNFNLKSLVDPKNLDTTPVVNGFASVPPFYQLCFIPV

[16] = Luminescence Cell-Based Dose Retest to Confirm Inhibitors of Cancer Stem Cells. [Related pubchem assays (depositor defined):AID2717, AID2721]; format: functional; conditions: Homo sapiens
[17] = test system: Streptococcus; test: GAS UMAA2166 growth inhibition – luminescence, BacTiterGlo, counter-screen for streptokinase expression inhibitor project, dose response (AID 1915); format: functional, organism-based;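 further: potency for reduction of bacterial viability or growth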
[18] = target: T3, Streptokinase A (Streptococcus pyogenes serotype M1, UniProt P10520); test: viability-normalized secreted streptokinase activity reduction – plasminogen activation absorbance, OD405, dose response (AID 1914); format: functional, Streptococcus pyogenes M1 GAS;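 further: secreted streptokinase activity via plasminogen activation per viability signal from cell pellet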
T3 sequence (P10520 whole entry): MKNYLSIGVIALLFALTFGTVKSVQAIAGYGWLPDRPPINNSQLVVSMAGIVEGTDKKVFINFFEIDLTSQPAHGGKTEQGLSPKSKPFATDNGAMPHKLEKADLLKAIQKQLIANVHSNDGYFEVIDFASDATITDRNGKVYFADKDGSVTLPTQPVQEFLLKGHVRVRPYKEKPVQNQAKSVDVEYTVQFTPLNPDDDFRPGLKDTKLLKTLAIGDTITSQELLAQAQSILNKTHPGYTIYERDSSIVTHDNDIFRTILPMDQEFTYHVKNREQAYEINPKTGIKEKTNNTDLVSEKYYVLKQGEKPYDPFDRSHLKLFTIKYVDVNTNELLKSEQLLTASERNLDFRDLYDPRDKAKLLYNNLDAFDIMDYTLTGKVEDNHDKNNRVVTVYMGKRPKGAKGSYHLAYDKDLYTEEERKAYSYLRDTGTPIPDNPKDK

[19] = test system: Streptococcus sp. 'group A'; test: Streptococcus pyogenes SK(-)GAS viability under kanamycin – luminescence, BacTiterGlo, confirmation, counter-screen for streptokinase expression inhibitor project, dose response (AID 1900); format: functional, organism-based

O=C1C[N+]([O-])=Cc2[nH]c3ccccc3c2N1c1ccc([N+](=O)[O-])cc1
IC50 [1]: 4.76 µM (not active)

CCN(CC)S(=O)(=O)c1ccc(C(=O)NCc2ccc3c(c2)OCO3)cc1
IC50 [1]: > 50 µM (not active)

CC(=O)O[C@@H]1[C@@H](O)[C@@H](O)[C@H](Oc2c(-c3ccc(O)cc3)oc3c(CC=C(C)C)c(O)cc(O)c3c2=O)O[C@H]1C
CC50 [2]: 16.1 µM (active)

CNc1nccc(-c2ccc(F)cc2)c1C#N
CC50 [2]: 47.5 µM (active)

CCCOc1cccc(-c2nnc(NC(=O)c3ccco3)s2)c1
EC50 [3]: 15.9 µM (active)
EC50 [4]: 1.91 µM (active)

Cc1ccc(-c2csc(/C=C3\SC(C)C(=O)N3CC(=O)Nc3ccccc3F)n2)cc1 (stereo unspecified)
IC50 [1]: 10.6 µM (active)

CCNc1ncc2nc(-c3ccc(OC)cc3)c(=O)n(Cc3cccs3)c2n1
AC50 [5]: 631 nM (inconclusive)
AC50 [6]: 7.94 µM (inconclusive)

Cc1cccc(OCCNc2cc(N3CCN(CCO)CC3)ccc2[N+](=O)[O-])c1
CC50 [2]: 15.6 µM (active)

COc1ccc(C(=O)Nc2ccc(S(=O)(=O)NC(C)(C)C)cc2)cc1[N+](=O)[O-]
IC50 [1]: 4.14 µM (not active)

O=C1[C@@H]2[C@H]3[C@H](O)[C@H](O)C/C(=N/OC[C@@H](O)COCc4ccco4)[C@@H]3CC[C@H]2C(=O)N1c1ccc(F)cc1F
AC50 [7]: inconclusive
AC50 [6]: 3.16 µM (inconclusive)

CN1C(=O)/C(=C\C(=O)c2cccs2)c2ccccc21
AC50 [8]: 23.1 µM (active)
EC50 [3]: > 150 µM (inconclusive)
EC50 [4]: > 38 µM (not active)

Oc1nc(-c2ccccn2)nc(C(F)(F)F)c1Br
EC50 [3]: > 150 µM (inactive)
EC50 [9]: 1.86 µM (active)
EC50 [10]: 10.9 µM (active)
EC50 [4]: 0.596 µM (active)

CCn1c(=O)[nH]c2ccccc2/c1=N/C(=O)c1ccc(F)cc1
CC50 [2]: 28 µM (active)

COc1ccc(C(=O)Nc2nc3ccc(OC)cc3s2)cc1
CC50 [2]: 21.5 µM (active)

CCCC1=Nc2cc(C(=O)NCCCOC(C)C)ccc2Sc2ccccc21
EC50 [11]: 37.8 µM (active)
EC50 [12]: 17.2 µM (inconclusive)
EC50 [13]: 9.44 µM (inconclusive)
EC50 [14]: 5.1 µM (active)

O=C(CC1CC2CCC1C2)OCC(=O)c1c[nH]c2ccccc12 (stereo unspecified)
IC50 [1]: 27.5 µM (not active)

COc1ccc(C(=O)CCc2ccccc2O)c(OC)c1
CC50 [2]: 41.8 µM (active)

CCOc1ccc(NC(=O)C(c2ccccn2)N(C(=O)CCl)c2ccc(OC)cc2)cc1 (stereo unspecified)
EC50 [11]: > 150 µM (not active)
EC50 [12]: > 150 µM (inconclusive)
EC50 [13]: > 150 µM (not active)
EC50 [14]: > 150 µM (not active)

Cc1ncsc1CCOC(=O)C1C2CC3CC(C2)CC1C3 (stereo unspecified)
IC50 [1]: 45.8 µM (not active)

CCC(=O)OCC(=O)c1cc(C)n(-c2ccc(Br)cc2)c1C
IC50 [1]: 6.49 µM (not active)

CC(OC(=O)c1ccccc1Nc1ccc(SC(F)F)cc1)C(N)=O (stereo unspecified)
IC50 [1]: 12 µM (not active)

Cc1cccc(C(=O)N2CCN(c3ccc([N+](=O)[O-])c(NCc4ccco4)c3)CC2)c1
AC50 [6]: 28.2 µM (inconclusive)

COc1ccc(C(NC(=O)C(C)C)c2c(O)ccc3ccccc23)cc1OC (stereo unspecified)
IC50 [1]: 18.4 µM (not active)

Cc1ccc(/N=C/c2nc(/C=C/c3cccc([N+](=O)[O-])c3)oc2O)cc1
AC50 ([7]; read-out: AC50): 7.94 µM (inconclusive)
AC50 [5]: 2000 nM (inconclusive)
AC50 [6]: 3.16 µM (inconclusive)
AC50 [15]: 17.8 µM (inconclusive)

Cc1ccc(-c2ccc([C@H]3[C@@H]4C=CCC[C@@]4(C)C(=O)N3Cc3ccccc3)c(F)c2)cc1
IC50 [1]: 3.65 µM (not active)
AC50 [16]: 3.55 µM (active)

Cc1cc(=O)oc2c(C)c(OCC(=O)N3CCN(c4cccc(Cl)c4)CC3)ccc12
CC50 [2]: 29.2 µM (active)

O=C(O)/C=C/c1ccc(S(=O)(=O)Nc2ccc(C(=O)NCC(=O)O)cc2)cc1
EC50 [3]: > 160 µM (inconclusive)
EC50 [4]: > 38 µM (not active)

Oc1cccc(Nc2nc(-c3ccccc3)nc3ccccc23)c1
CC50 [2]: 13.3 µM (active)

Cc1cc(Br)ccc1SCC(=O)OCC(=O)c1c(N)n(C)c(=O)n(C)c1=O
IC50 [1]: 10.8 µM (active)

CCCCCCCCO/C(O)=C1\C(C)=Nc2nnnn2C1c1cccs1 (stereo unspecified)
EC50 [17]: 7.3 µM (active)
IC50 [1]: 3.59 µM (not active)
EC50 [18]: > 50 µM (not active)
AC50 [16]: 6.65 µM (active)
EC50 [19]: 2.33 µM (active)

O=C(Nc1ccc2c(c1)OCCO2)C(=O)c1c[nH]c2ccccc12
EC50 [11]: 28.3 µM (active)
EC50 [12]: 24.5 µM (inconclusive)
EC50 [13]: 14.2 µM (active)
EC50 [14]: 4.19 µM (inconclusive)
AC50 [16]: 0.718 µM (active)

CCOc1ccc(NC2=NC(=O)CS2)cc1
CC50 [2]: 24.5 µM (active)

COc1cc(/C=C2/SC(=S)N(CC(=O)Nc3cccnc3)C2=O)cc(OC)c1OC
EC50 [11]: > 150 µM (not active)
EC50 [12]: > 150 µM (inconclusive)
EC50 [13]: > 150 µM (not active)
EC50 [14]: > 150 µM (not active)

Cc1onc(-c2c(F)cccc2Cl)c1C(=O)NNC(=O)C1CCN(Cc2ccccc2)CC1
EC50 [3]: > 150 µM (inconclusive)
EC50 [4]: > 38 µM (not active)

CCS(=O)(=O)NCCc1cc2ccc(C)cc2nc1O
AC50 ([7]; read-out: AC50): 10 µM (inconclusive)
AC50 [6]: 39.8 µM (inconclusive)

CSCCC(NS(=O)(=O)c1ccc(Cl)cc1)C(=O)OCC(=O)N1CCCc2ccccc21 (stereo unspecified)
IC50 [1]: 14.6 µM (not active)

COc1cc(/C=C2/C(=O)NN(c3ccc(Cl)cc3)C2=O)cc(OC)c1O
EC50 [3]: > 160 µM (inactive)
EC50 [4]: 2.27 µM (inconclusive)

COc1ccc(S(=O)(=O)Oc2cccc(/C=N/NC3=NC(=O)C(CC(=O)O)S3)c2)cc1 (stereo unspecified)
IC50 [1]: > 50 µM (not active)
